Measurements as given in patent publication US11414424B2, “Cardiac sarcomere inhibitors” (Cytokinetics, Inc., priority 2018, dated 2022).

Each compound was assayed on bovine cardiac myofibrils (assay: Myofibril assay: PK/LDH-coupled steady-state ATPase activity of skinned bovine cardiac myofibrils). Conditions: Ca2+ activating to 75% of maximal rate.
Assay type: biochemical
Procedure: To evaluate the effect of compounds on the ATPase activity of full-length cardiac myosin in the context of the native sarcomere, skinned myofibril assays were performed. Bovine cardiac myofibrils were obtained by homogenizing bovine cardiac left ventricular tissue in the presence of a detergent such as triton X-100. Such treatment removes membranes and a majority of the soluble cytoplasmic proteins but leaves intact the cardiac sarcomeric acto-myosin apparatus. Myofibril preparations retain the ability to hydrolyze ATP in a Ca^2+ regulated manner. ATPase activities of such myofibril preparations in the presence and absence of compounds were assayed at Ca^2+ concentrations activating to a defined fraction of the maximal rate (i.e., […], 75%). Small molecule agents were assessed for their ability to inhibit the steady-state ATPase activity of bovine cardiac myofibrils using pyruvate kinase and lactate dehydrogenase (PK/LDH)-coupled enzyme system. This assay regenerates myosin-produced ADP into ATP by oxidizing NADH, producing an absorbance change at 340 nm. Prior to testing small molecule agents, the bovine cardiac myofibrils were assessed for their calcium responsiveness and the calcium concentration that achieves either a 50% (pCa50) or 75% (pCa75) activation of the myofibril system was chosen as the final condition for assessing the inhibitory activity of the small molecule agents. All enzymatic activity was measured in a buffered solution containing 12 mM PIPES (piperazine-N,N′-bis(2-ethanesulfonic acid), 2 mM magnesium chloride at pH 6.8 (PM 12 buffer). Final assay conditions were 1 mg/mL of bovine cardiac myofibrils, 4 U/mL pyruvate kinase, 6 U/mL lactate dehydrogenase, 50 μM ATP, 0.1 mg/mL BSA (bovine serum albumin), 10 ppm antifoam, 1 mM DTT, 0.5 mM NADH, 1.5 mM PEP, 0.6 mM EGTA, and an amount of CaCl2 sufficient to achieve either 50% or 75% activation of the myofibril ATPase activity. Results for compounds tested are provided in Table A. Compounds tested were prepared in accordance with the synthetic procedures described herein.

Row | CDMF75 IC15 | Structure (SMILES)
1 | 2.7 µM | Cc1cncc(N2CC3(C2)C(=O)N(C(C)C)CC(=O)N3Cc2ccc(Cl)cc2)c1 [Compound 16, 5-(4-chlorobenzyl)-8-isopropyl-2-(5-methyl-pyridin-3-yl)-2,5,8-triazaspiro[3.5]nonane-6,9-dione]
2 | 1.7 µM | CC(C)N1CC(=O)N(Cc2ccc(Cl)cc2)C2(CN(c3ccc(F)cn3)C2)C1=O [Compound 17, 5-(4-chlorobenzyl)-2-(5-fluoropyridin-2-yl)-8-isopropyl-2,5,8-triazaspiro[3.5]nonane-6,9-dione]
3 | 3.1 µM | CC(C)N1CC(=O)N(Cc2ccc(Cl)cc2)C2(CN(c3cncc(F)c3)C2)C1=O [Compound 18, 5-(4-chlorobenzyl)-2-(5-fluoropyridin-3-yl)-8-isopropyl-2,5,8-triazaspiro[3.5]nonane-6,9-dione]
4 | 5.7 µM | CC(C)N1CC(=O)N(Cc2ccc(Cl)cc2)C2(CN(c3ccncn3)C2)C1=O [Compound 19, 5-(4-chlorobenzyl)-8-isopropyl-2-(pyrimidin-4-yl)-2,5,8-triazaspiro-[3.5]nonane-6,9-dione]
5 | 7.5 µM | CC(C)N1C(=O)C2(CN(c3ccc(F)cc3)C2)N(Cc2ccc(Cl)cc2)C(=O)C1C (centres unmarked) [Compound 20, 5-(4-chlorobenzyl)-2-(4-fluorophenyl)-8-isopropyl-7-methyl-2,5,8-triazaspiro[3.5]nonane-6,9-dione]
6 | 2.6 µM | CC(C)N1CC(=O)N(Cc2ccc(Cl)cc2)C2(CN(c3cnn(C)c3)C2)C1=O [Compound 21, 5-(4-chlorobenzyl)-8-isopropyl-2-(1-methyl-1H-pyrazol-4-yl)-2,5,8-triazaspiro[3.5]nonane-6,9-dione]
7 | 4.1 µM | CC(C)N1CC(=O)N(Cc2ccc(Cl)cc2)C2(CN(c3nccs3)C2)C1=O [Compound 22, 5-(4-chlorobenzyl)-8-isopropyl-2-(thiazol-2-yl)-2,5,8-triazaspiro[3.5]-nonane-6,9-dione]
8 | 2.2 µM | CC(C)N1CC(=O)N(Cc2ccc(Cl)cc2)C2(CN(c3cccnn3)C2)C1=O [Compound 23, 5-(4-chlorobenzyl)-8-isopropyl-2-(pyridazin-3-yl)-2,5,8-triazaspiro[3.5]-nonane-6,9-dione]
9 | 5.7 µM | CC(C)N1CC(=O)N(Cc2ccc(Cl)cc2)C2(CN(c3ccnnc3)C2)C1=O [Compound 24, 5-(4-chlorobenzyl)-8-isopropyl-2-(pyridazin-4-yl)-2,5,8-triazaspiro[3.5]-nonane-6,9-dione]
10 | 8.8 µM | CC(C)N1CC(=O)N(Cc2ccc(Cl)cc2)C2(CN(c3cncnc3)C2)C1=O [Compound 25, 5-(4-chlorobenzyl)-8-isopropyl-2-(pyrimidin-5-yl)-2,5,8-triazaspiro-[3.5]nonane-6,9-dione]
11 | 3.0 µM | Cc1cc(N2CC3(C2)C(=O)N(C(C)C)CC(=O)N3Cc2ccc(Cl)cc2)n[nH]1 [Compound 26, 5-(4-chlorobenzyl)-8-isopropyl-2-(5-methyl-1H-pyrazol-3-yl)-2,5,8-triazaspiro[3.5]nonane-6,9-dione]
12 | 8.6 µM | CC(C)N1CC(=O)N(Cc2ccc(Cl)cc2)C2(CN(c3ccnc(C#N)c3)C2)C1=O [Compound 27, 4-(5-(4-chlorobenzyl)-8-isopropyl-6,9-dioxo-2,5,8-triazaspiro[3.5]nonan-2-yl)picolinonitrile]
13 | 3.1 µM | CC(C)N1CC(=O)N(Cc2ccc(Cl)cc2)C2(CN(c3ccnc(O)c3)C2)C1=O [Compound 28, 5-(4-chlorobenzyl)-2-(2-hydroxypyridin-4-yl)-8-isopropyl-2,5,8-triazaspiro[3.5]nonane-6,9-dione]
14 | 5.6 µM | CC(C)N1CC(=O)N(Cc2ccc(Cl)cc2)C2(CN(c3ccnc(C(F)F)c3)C2)C1=O [Compound 29, 5-(4-chlorobenzyl)-2-(2-(difluoromethyl)pyridin-4-yl)-8-isopropyl-2,5,8-triazaspiro[3.5]nonane-6,9-dione]
15 | 21.1 µM | Cc1ccc(CN2C(=O)CN(C(C)C)C(=O)C23CN(c2ccnc(C)c2)C3)cc1 [Compound 30, 8-isopropyl-5-(4-methylbenzyl)-2-(2-methylpyridin-4-yl)-2,5,8-triazaspiro[3.5]-nonane-6,9-dione]
16 | 2.7 µM | Cc1cc(N2CC3(C2)C(=O)N(C(C)C)CC(=O)N3Cc2ccc(C(F)(F)F)cc2)ccn1 [Compound 31, 8-isopropyl-2-(2-methylpyridin-4-yl)-5-(4-(trifluoromethyl)benzyl)-2,5,8-triazaspiro[3.5]-nonane-6,9-dione]
17 | 9.6 µM | CC(C)N1CC(=O)N(Cc2ccc(Cl)cc2)C2(CN(c3cscn3)C2)C1=O [Compound 32, 5-(4-chlorobenzyl)-8-isopropyl-2-(thiazol-4-yl)-2,5,8-triazaspiro[3.5]-nonane-6,9-dione]
18 | 5.4 µM | CC(C)N1CC(=O)N(Cc2ccc(Cl)cc2)C2(CN(c3cncs3)C2)C1=O [Compound 33, 5-(4-chlorobenzyl)-8-isopropyl-2-(thiazol-5-yl)-2,5,8-triazaspiro[3.5]-nonane-6,9-dione]
19 | 10.4 µM | CC(C)N1CC(=O)N(Cc2ccc(Cl)cc2)C2(CN(c3ccnc(C4CC4)c3)C2)C1=O [Compound 34, 5-(4-chlorobenzyl)-2-(2-cyclopropylpyridin-4-yl)-8-isopropyl-2,5,8-triazaspiro[3.5]nonane-6,9-dione]
20 | 14.6 µM | COC(=O)c1cc(N2CC3(C2)C(=O)N(C(C)C)CC(=O)N3Cc2ccc(Cl)cc2)ccn1 [Compound 35, methyl 4-(5-(4-chloro-benzyl)-8-isopropyl-6,9-dioxo-2,5,8-triazaspiro[3.5]nonan-2-yl)picolinate]
21 | 24.5 µM | CC(C)N1CC(=O)N(Cc2ccc(Cl)cc2)C2(CN(c3ccnc(C(=O)O)c3)C2)C1=O [Compound 36, 4-(5-(4-chlorobenzyl)-8-isopropyl-6,9-dioxo-2,5,8-triazaspiro[3.5]nonan-2-yl)picolinic acid]
22 | 6.0 µM | CC(C)N1CC(=O)N(Cc2ccc(Cl)cc2)C2(CN(c3ccnc(C(N)=O)c3)C2)C1=O [Compound 37, 4-(5-(4-chlorobenzyl)-8-isopropyl-6,9-dioxo-2,5,8-triazaspiro[3.5]nonan-2-yl)picolinamide]
23 | 12.4 µM | CNC(=O)c1cc(N2CC3(C2)C(=O)N(C(C)C)CC(=O)N3Cc2ccc(Cl)cc2)ccn1 [Compound 38, 4-(5-(4-chlorobenzyl)-8-isopropyl-6,9-dioxo-2,5,8-triazaspiro-[3.5]nonan-2-yl)-N-methylpicolinamide]
24 | 3.9 µM | CC(C)N1CC(=O)N(Cc2ccc(Cl)cc2)C2(CN(c3nc(C(F)(F)F)cs3)C2)C1=O [Compound 39, 5-(4-chlorobenzyl)-8-isopropyl-2-(4-(trifluoromethyl)thiazol-2-yl)-2,5,8-triazaspiro-[3.5]nonane-6,9-dione]
25 | 7.2 µM | CC(C)N1CC(=O)N(Cc2ccc(Cl)cc2)C2(CN(c3nc(C(N)=O)cs3)C2)C1=O [Compound 40, 2-(5-(4-chlorobenzyl)-8-isopropyl-6,9-dioxo-2,5,8-triazaspiro[3.5]nonan-2-yl)thiazole-4-carboxamide]
26 | 7.0 µM | CC(C)N1CC(=O)N(Cc2ccc(Cl)cc2)C2(CN(c3cn[nH]c3)C2)C1=O [Compound 41, 5-(4-chlorobenzyl)-8-isopropyl-2-(1H-pyrazol-4-yl)-2,5,8-triazaspiro-[3.5]nonane-6,9-dione]
